From PubChem BioAssay (NCI)
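Cells were grown in 96-well plates and exposed to each compound for 48 hours at five concentrations; endpoints were interpolated linearly between bracketing concentrations, or set to the highest concentration if not reached. GI50 marks 50% less growth. Definition used: TGI = concentration required for complete inhibition of growth.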

Columns and labels:
Assay in all cases: growth of human tumour cells (NCI), 48 h; in the data active = GI50 below about 0.43 µM; inactive = the rest
SNB-19 CNS = system: SNB-19 CNS
OVCAR-3 ovarian = system: OVCAR-3 ovarian
MDA-MB-468 breast = system: MDA-MB-468 breast
OVCAR-5 ovarian = system: OVCAR-5 ovarian
COLO 205 colon = system: COLO 205 colon
TK-10 renal = system: TK-10 renal
IGROV1 ovarian = system: IGROV1 ovarian
BT-549 breast = system: BT-549 breast
SK-OV-3 ovarian = system: SK-OV-3 ovarian
CCRF-CEM leukemia = system: CCRF-CEM leukemia
OVCAR-8 ovarian = system: OVCAR-8 ovarian
SF-539 CNS = system: SF-539 CNS
DU-145 prostate = system: DU-145 prostate
UO-31 renal = system: UO-31 renal
EKVX NSCLC = system: EKVX NSCLC
HS 578T breast = system: HS 578T breast
SF-295 CNS = system: SF-295 CNS
SK-MEL-5 melanoma = system: SK-MEL-5 melanoma
UACC-62 melanoma = system: UACC-62 melanoma
MOLT-4 leukemia = system: MOLT-4 leukemia
CAKI-1 renal = system: CAKI-1 renal
HOP-62 NSCLC = system: HOP-62 NSCLC
RXF 393 renal = system: RXF 393 renal
SF-268 CNS = system: SF-268 CNS
OVCAR-4 ovarian = system: OVCAR-4 ovarian
SN12C renal = system: SN12C renal
T-47D breast = system: T-47D breast
HL-60(TB) leukemia = system: HL-60(TB) leukemia
U251 CNS = system: U251 CNS
MDA-MB-231 breast = system: MDA-MB-231 breast
NCI-H522 lung = system: NCI-H522 lung
LOX IMVI melanoma = system: LOX IMVI melanoma
PC-3 prostate = system: PC-3 prostate
786-0 renal = system: 786-0 renal
SNB-75 CNS = system: SNB-75 CNS
SW-620 colon = system: SW-620 colon
A549 NSCLC = system: A549 NSCLC
NCI-H23 lung = system: NCI-H23 lung
NCI-H226 lung = system: NCI-H226 lung
KM12 colon = system: KM12 colon
HCT-15 colon = system: HCT-15 colon
A498 renal = system: A498 renal
ACHN renal = system: ACHN renal
HCT-116 colon = system: HCT-116 colon
SK-MEL-2 melanoma = system: SK-MEL-2 melanoma
HOP-92 NSCLC = system: HOP-92 NSCLC
SK-MEL-28 melanoma = system: SK-MEL-28 melanoma
M14 melanoma = system: M14 melanoma
SR leukemia = system: SR leukemia
HT29 colon = system: HT29 colon
NCI-H460 lung = system: NCI-H460 lung
HCC-2998 colon = system: HCC-2998 colon
RPMI-8226 leukemia = system: RPMI-8226 leukemia
MALME-3M melanoma = system: MALME-3M melanoma
MCF7 breast = system: MCF7 breast
K-562 leukemia = system: K-562 leukemia

O=C(Nc1cccc(-c2cn(-c3ccc4oc(=O)ccc4c3)nn2)c1)Nc1cc(C(F)(F)F)cc(C(F)(F)F)c1
8.47 µM: TGI (RXF 393 renal)
8.69 µM: TGI (MDA-MB-468 breast)
90.2 µM: TGI (ACHN renal)
68.1 µM: TGI (786-0 renal)
89.8 µM: TGI (SNB-19 CNS)
inactive: GI50 (SNB-19 CNS) 10.1 µM | GI50 (OVCAR-3 ovarian) 3.31 µM | GI50 (MDA-MB-468 breast) 2.43 µM | GI50 (OVCAR-5 ovarian) > 100 µM | GI50 (COLO 205 colon) > 100 µM | GI50 (TK-10 renal) 13.4 µM | GI50 (IGROV1 ovarian) 8.87 µM | GI50 (BT-549 breast) 7.19 µM | GI50 (SK-OV-3 ovarian) 18.6 µM | GI50 (CCRF-CEM leukemia) 3.31 µM | GI50 (OVCAR-8 ovarian) 5.73 µM | GI50 (SF-539 CNS) 15.1 µM | GI50 (DU-145 prostate) 8.09 µM | GI50 (UO-31 renal) 6.34 µM | GI50 (EKVX NSCLC) 5.04 µM | GI50 (HS 578T breast) 5.16 µM | GI50 (SF-295 CNS) 3.31 µM | GI50 (SK-MEL-5 melanoma) 4.18 µM | GI50 (UACC-62 melanoma) 6.8 µM | GI50 (MOLT-4 leukemia) 3.82 µM | GI50 (CAKI-1 renal) 6.3 µM | GI50 (HOP-62 NSCLC) 8.08 µM | GI50 (RXF 393 renal) 2.44 µM | GI50 (SF-268 CNS) 21.3 µM | GI50 (OVCAR-4 ovarian) 3.42 µM | GI50 (SN12C renal) 6.31 µM | GI50 (T-47D breast) 3.14 µM | GI50 (HL-60(TB) leukemia) 6.5 µM | GI50 (U251 CNS) 4.69 µM | GI50 (MDA-MB-231 breast) 18.2 µM | GI50 (NCI-H522 lung) 4.39 µM | GI50 (LOX IMVI melanoma) 7.55 µM | GI50 (PC-3 prostate) 4.07 µM | GI50 (786-0 renal) 12.6 µM | GI50 (SNB-75 CNS) 10.2 µM | GI50 (SW-620 colon) 55.5 µM | GI50 (A549 NSCLC) 5.1 µM | GI50 (NCI-H23 lung) 3.34 µM | GI50 (NCI-H226 lung) 5.57 µM | GI50 (KM12 colon) 5.2 µM | GI50 (HCT-15 colon) 5.15 µM | GI50 (A498 renal) 20.7 µM | GI50 (ACHN renal) 6.86 µM | GI50 (HCT-116 colon) 7.17 µM | GI50 (SK-MEL-2 melanoma) 5.55 µM | GI50 (HOP-92 NSCLC) 3.66 µM | GI50 (SK-MEL-28 melanoma) > 100 µM | GI50 (M14 melanoma) > 100 µM | GI50 (SR leukemia) 5.63 µM | GI50 (HT29 colon) > 100 µM | GI50 (NCI-H460 lung) 4.81 µM | GI50 (HCC-2998 colon) 8.14 µM | GI50 (RPMI-8226 leukemia) 2.88 µM | GI50 (MALME-3M melanoma) 28.2 µM | GI50 (MCF7 breast) 4.41 µM | GI50 (K-562 leukemia) 3.25 µM
25.7 µM: TGI (SK-MEL-2 melanoma)
66.9 µM: TGI (HOP-62 NSCLC)
> 100 µM: TGI (OVCAR-3 ovarian) | TGI (OVCAR-5 ovarian) | TGI (COLO 205 colon) | TGI (IGROV1 ovarian) | TGI (BT-549 breast) | TGI (SK-OV-3 ovarian) | TGI (CCRF-CEM leukemia) | TGI (OVCAR-8 ovarian) | TGI (SF-539 CNS) | TGI (DU-145 prostate) | TGI (UO-31 renal) | TGI (EKVX NSCLC) | TGI (HS 578T breast) | TGI (SF-295 CNS) | TGI (SK-MEL-5 melanoma) | TGI (UACC-62 melanoma) | TGI (MOLT-4 leukemia) | TGI (CAKI-1 renal) | TGI (SF-268 CNS) | TGI (OVCAR-4 ovarian) | TGI (SN12C renal) | TGI (T-47D breast) | TGI (HL-60(TB) leukemia) | TGI (U251 CNS) | TGI (MDA-MB-231 breast) | TGI (NCI-H522 lung) | TGI (LOX IMVI melanoma) | TGI (PC-3 prostate) | TGI (SW-620 colon) | TGI (A549 NSCLC) | TGI (NCI-H23 lung) | TGI (NCI-H226 lung) | TGI (KM12 colon) | TGI (HCT-15 colon) | TGI (A498 renal) | TGI (HCT-116 colon) | TGI (SK-MEL-28 melanoma) | TGI (M14 melanoma) | TGI (SR leukemia) | TGI (HT29 colon) | TGI (NCI-H460 lung) | TGI (HCC-2998 colon) | TGI (RPMI-8226 leukemia) | TGI (MALME-3M melanoma) | TGI (MCF7 breast) | TGI (K-562 leukemia)
56.9 µM: TGI (TK-10 renal)
31.3 µM: TGI (HOP-92 NSCLC)
45.1 µM: TGI (SNB-75 CNS)
